Drawing on article PMC8500670, “A selective WDR5 degrader inhibits acute myeloid leukemia in patient-derived mouse models” (Science translational medicine, 2021), this text covers remaining activity for one compound.

Common to all, as to experiment: biochemical
Design in all cases: protein methyltransferase selectivity panel, enzyme activity relative to DMSO controls, single concentration in duplicate

The target of one assay is SETD2 (Homo sapiens, UniProt Q9BYW2). The settings on record: Substrate:=Nucleosomes. The method, then: (§1) We next assessed selectivity of MS67 against 22 protein methyltransferases (table S2) and a broad panel of common drug targets including 45 kinases (table S3) and 44 G protein–coupled receptors (GPCR), ion channels, and transporters (table S4). […] We subsequently determined that MS67 had moderate binding affinity (Ki = 1.0 ± 0.8 μM) to Sigma 2 receptor (fig. S10).

A further assay has as its target NSD1 (Homo sapiens, UniProt Q96L73). The settings on record: Substrate:=Nucleosomes. Here is the method:
as §1

Another assay deals with SUV39H2 (Homo sapiens, UniProt Q9H5I1). The settings on record: Substrate:=Histone H3; read-out: Enzyme % Activity (relative to DMSO controls) / MS67 / 10 / Data 1:
The method, then:
as §1

For the next assay, the target named is T1, SET7/9 (Homo sapiens, UniProt Q8WTS6).
T1 construct: gene SETD7
T1 sequence (Q8WTS6 1-366): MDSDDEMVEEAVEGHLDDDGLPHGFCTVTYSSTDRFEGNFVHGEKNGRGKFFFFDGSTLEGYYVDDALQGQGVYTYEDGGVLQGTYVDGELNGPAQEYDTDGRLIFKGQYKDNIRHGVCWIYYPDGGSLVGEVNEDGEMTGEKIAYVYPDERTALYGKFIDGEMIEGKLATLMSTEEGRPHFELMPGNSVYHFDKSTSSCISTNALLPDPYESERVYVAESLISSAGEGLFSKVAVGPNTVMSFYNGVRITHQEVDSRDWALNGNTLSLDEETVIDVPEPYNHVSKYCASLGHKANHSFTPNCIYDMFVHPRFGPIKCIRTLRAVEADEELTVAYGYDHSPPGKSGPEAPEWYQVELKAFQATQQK
The settings on record: Substrate:=Core Histone. The method, then:
as §1

The next assay addresses T2, PRMT4 (Homo sapiens, UniProt Q86X55).
T2 construct: gene CARM1
T2 sequence (Q86X55 1-608): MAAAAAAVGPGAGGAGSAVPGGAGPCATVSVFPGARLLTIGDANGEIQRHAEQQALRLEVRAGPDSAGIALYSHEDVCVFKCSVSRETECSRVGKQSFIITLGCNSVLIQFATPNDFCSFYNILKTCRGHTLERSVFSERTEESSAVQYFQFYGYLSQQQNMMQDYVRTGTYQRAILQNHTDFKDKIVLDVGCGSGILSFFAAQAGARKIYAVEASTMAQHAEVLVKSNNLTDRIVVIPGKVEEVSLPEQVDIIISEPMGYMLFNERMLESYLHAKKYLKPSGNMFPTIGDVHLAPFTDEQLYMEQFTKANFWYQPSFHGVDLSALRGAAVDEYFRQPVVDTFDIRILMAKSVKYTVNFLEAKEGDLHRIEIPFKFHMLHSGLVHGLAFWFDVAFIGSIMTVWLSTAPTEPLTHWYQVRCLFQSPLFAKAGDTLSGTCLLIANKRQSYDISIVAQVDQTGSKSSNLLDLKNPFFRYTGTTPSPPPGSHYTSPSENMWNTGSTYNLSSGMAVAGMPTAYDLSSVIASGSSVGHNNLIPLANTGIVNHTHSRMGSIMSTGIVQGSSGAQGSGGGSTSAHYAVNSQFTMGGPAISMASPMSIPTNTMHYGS
The settings on record: Substrate:=Histone H3. The method, then: as §1

Another assay deals with T3, SET8 (Homo sapiens, UniProt Q9NQR1).
T3 construct: gene KMT5A
T3 sequence (Q9NQR1 1-393): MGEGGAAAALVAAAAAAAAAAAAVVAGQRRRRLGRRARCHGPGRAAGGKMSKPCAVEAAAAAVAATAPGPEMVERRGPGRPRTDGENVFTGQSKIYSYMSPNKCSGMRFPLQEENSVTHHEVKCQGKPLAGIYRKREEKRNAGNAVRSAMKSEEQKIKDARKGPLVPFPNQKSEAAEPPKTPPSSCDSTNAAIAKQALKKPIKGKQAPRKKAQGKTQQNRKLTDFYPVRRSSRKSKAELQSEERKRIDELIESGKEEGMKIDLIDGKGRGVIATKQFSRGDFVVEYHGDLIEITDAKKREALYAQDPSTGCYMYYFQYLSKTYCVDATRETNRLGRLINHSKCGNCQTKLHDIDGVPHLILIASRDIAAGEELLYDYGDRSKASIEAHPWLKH
The settings on record: Substrate:=Nucleosomes. The method, then:
as §1

Setting [1] is: read-out: Enzyme % Activity (relative to DMSO controls) / MS67 / 10 / Data 1:
Setting [2] is: read-out: Enzyme % Activity (relative to DMSO controls) / MS67 / 10 / Data 2:

The structures appear in SMILES notation. Like-named read-outs stand apart in the source and are kept apart here.

SETD2, sequence (Q9BYW2 whole entry): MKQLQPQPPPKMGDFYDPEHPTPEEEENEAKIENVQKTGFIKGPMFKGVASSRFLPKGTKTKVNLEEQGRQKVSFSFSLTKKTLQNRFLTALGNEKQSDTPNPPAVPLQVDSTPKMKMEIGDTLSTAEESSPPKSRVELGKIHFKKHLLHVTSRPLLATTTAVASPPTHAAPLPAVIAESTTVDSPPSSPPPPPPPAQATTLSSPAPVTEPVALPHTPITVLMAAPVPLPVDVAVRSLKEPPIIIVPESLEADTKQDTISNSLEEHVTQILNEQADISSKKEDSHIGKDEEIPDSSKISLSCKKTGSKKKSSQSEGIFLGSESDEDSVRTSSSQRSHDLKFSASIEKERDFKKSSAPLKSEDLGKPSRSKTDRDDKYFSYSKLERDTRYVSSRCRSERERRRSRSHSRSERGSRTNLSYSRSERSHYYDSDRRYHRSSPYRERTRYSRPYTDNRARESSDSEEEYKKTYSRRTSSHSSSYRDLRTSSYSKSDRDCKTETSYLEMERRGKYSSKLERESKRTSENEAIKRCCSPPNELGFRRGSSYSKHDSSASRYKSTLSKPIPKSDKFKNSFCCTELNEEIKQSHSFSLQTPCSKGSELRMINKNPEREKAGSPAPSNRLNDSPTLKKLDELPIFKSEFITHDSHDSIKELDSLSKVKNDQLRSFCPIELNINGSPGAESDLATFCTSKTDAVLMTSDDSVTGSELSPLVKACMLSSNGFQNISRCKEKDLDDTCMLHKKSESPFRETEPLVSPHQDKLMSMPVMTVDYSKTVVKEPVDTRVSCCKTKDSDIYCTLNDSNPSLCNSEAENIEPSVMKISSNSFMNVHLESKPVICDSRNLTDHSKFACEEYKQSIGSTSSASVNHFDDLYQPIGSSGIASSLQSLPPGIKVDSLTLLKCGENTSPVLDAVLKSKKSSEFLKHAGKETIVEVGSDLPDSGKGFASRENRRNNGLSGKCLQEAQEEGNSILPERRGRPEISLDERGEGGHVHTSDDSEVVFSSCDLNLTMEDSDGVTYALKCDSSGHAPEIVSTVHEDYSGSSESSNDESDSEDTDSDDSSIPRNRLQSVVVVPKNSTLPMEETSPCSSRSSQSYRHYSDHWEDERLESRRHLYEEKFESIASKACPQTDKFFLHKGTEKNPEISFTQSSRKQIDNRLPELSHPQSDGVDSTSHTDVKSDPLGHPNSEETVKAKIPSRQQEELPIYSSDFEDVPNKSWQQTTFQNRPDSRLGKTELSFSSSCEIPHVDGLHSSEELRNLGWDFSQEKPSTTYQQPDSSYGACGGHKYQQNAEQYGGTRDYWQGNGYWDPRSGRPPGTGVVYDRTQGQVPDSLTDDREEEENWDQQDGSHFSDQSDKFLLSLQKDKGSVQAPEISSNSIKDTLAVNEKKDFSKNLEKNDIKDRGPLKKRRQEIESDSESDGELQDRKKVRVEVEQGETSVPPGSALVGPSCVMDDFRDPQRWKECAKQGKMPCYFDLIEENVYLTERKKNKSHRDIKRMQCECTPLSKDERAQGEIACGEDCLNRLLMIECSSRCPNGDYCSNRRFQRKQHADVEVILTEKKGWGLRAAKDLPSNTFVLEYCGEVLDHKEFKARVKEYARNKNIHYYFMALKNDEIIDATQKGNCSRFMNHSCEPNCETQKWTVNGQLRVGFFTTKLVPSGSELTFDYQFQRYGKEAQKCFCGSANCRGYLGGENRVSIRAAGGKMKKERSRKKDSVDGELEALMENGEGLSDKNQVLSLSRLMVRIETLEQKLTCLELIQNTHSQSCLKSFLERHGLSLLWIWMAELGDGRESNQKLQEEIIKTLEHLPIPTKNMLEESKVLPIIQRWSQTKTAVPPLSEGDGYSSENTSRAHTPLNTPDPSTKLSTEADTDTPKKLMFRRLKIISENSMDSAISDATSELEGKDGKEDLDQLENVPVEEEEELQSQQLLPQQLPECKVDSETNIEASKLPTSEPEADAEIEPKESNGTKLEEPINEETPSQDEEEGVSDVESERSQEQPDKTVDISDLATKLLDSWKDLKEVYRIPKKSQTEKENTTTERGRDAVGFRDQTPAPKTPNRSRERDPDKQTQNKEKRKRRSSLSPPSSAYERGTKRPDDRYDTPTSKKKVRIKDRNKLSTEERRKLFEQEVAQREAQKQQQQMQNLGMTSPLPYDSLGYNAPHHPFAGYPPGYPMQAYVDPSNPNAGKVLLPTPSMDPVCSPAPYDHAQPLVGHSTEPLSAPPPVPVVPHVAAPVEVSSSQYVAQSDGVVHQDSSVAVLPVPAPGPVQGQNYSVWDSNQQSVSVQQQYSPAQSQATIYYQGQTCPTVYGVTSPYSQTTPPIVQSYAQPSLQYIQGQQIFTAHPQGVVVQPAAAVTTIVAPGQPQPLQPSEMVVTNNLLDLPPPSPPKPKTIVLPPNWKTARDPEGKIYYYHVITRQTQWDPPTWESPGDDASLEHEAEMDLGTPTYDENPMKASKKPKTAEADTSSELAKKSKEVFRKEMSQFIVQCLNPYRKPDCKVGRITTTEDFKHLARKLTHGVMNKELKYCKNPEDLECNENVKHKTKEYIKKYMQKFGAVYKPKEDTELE
SUV39H2, sequence (Q9H5I1 whole entry): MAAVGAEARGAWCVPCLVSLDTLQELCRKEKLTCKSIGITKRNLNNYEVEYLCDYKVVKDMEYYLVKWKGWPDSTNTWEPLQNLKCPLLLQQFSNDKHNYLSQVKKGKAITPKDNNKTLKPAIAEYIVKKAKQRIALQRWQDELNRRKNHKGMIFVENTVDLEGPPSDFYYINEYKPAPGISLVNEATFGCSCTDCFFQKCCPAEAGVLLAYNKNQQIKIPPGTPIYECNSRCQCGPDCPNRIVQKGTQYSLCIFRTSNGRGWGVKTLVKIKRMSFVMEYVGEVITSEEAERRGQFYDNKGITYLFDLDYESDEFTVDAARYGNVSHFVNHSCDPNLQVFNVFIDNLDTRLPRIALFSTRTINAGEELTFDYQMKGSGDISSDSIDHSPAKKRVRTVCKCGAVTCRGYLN

Regarding `Cc1ncsc1-c1ccc([C@H](C)NC(=O)[C@@H]2C[C@@H](O)CN2C(=O)[C@@H](NC(=O)CNC(=O)c2ccc(F)c(-c3ccc(N4C[C@@H](C)N(C)[C@@H](C)C4)c(NC(=O)c4c[nH]c(=O)cc4C(F)(F)F)c3)c2)C(C)(C)C)cc1` [MS67], the remaining activity at 10 µM came to 112% on SETD2 (setting [1]); 110% on SETD2 (setting [2]); 111% on NSD1 (setting [1]); 107% on NSD1 (setting [2]); 102% at SUV39H2; 99.7% at SET7/9 (setting [1]). Also, the remaining activity at 10 µM at SET7/9 (setting [2]) was 92%; at PRMT4 (setting [1]) it was 107%; on PRMT4 (setting [2]), 98.9%; at SET8 (setting [1]) it was 112%; at SET8 (setting [2]) it was 113%.
